# How the values were obtained:
# [1] = biological target: T1, Leukotriene C4 synthase (Cavia porcellus, UniProt A6XA80); assay type: tissue-based, Lung;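 further: enzyme inhibition assay of leukotriene C4 synthase, using LTA4 as the substrate; in other assays of this panel Not Active means under 50% inhibition at 10 µM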
# T1 sequence (A6XA80 whole entry): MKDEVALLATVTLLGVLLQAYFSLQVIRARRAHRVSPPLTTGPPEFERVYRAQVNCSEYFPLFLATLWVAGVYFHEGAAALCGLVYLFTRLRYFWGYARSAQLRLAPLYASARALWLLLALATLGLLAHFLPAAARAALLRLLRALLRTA
# [2] = biological target: T2, C-X-C chemokine receptor type 2 (Homo sapiens, UniProt P25025); assay type: cell membranes, Membrane; conditions: cho-k1; further: in other assays of this panel Not Active means under 50% inhibition at 10 µM
# T2 sequence (P25025 whole entry): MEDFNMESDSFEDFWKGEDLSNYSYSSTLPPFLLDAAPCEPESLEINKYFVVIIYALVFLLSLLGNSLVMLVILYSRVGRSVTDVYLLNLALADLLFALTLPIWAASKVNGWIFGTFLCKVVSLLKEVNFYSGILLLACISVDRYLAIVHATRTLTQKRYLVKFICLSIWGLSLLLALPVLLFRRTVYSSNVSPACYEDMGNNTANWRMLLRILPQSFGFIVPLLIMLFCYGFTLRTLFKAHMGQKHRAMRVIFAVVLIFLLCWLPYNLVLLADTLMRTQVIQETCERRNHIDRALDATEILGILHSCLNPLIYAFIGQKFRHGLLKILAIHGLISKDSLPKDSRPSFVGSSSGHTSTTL
# [3] = biological target: 5-hydroxytryptamine receptor 1B (Rattus norvegicus, UniProt P28564); assay type: cell membranes, Wistar, Cerebral cortex, Membrane; further: in other assays of this panel Not Active means under 50% inhibition at 10 µM
# [4] = biological target: T3, Calcitonin receptor (Homo sapiens, UniProt P30988); assay type: cell membranes, Membrane; conditions: t47d; further: in other assays of this panel Not Active means under 50% inhibition at 10 µM
# T3 sequence (P30988 whole entry): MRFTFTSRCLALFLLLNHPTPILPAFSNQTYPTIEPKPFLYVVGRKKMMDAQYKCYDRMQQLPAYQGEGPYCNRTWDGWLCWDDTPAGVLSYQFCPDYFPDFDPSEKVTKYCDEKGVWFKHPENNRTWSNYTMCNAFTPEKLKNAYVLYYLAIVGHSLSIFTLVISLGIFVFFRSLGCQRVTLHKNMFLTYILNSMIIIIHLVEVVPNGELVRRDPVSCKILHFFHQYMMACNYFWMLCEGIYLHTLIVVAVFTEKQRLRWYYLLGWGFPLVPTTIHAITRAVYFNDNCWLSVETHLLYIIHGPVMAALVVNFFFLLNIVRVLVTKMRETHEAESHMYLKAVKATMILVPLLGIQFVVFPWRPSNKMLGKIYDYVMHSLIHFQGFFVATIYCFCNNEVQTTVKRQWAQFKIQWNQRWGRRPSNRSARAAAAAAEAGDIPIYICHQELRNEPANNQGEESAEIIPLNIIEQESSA
# [5] = DRUGMATRIX: Nicotinic Acetylcholine radioligand binding (ligand: [125I] Epibatidine); assay type: cell membranes, Membrane; conditions: imr-32; Not Active = under 50% inhibition at 10 µM
# [6] = biological target: T4, Muscarinic acetylcholine receptor M2 (Homo sapiens, UniProt P08172); assay type: cell membranes, CHO-K1, Membrane; conditions: cho-k1; further: in other assays of this panel Not Active means under 50% inhibition at 10 µM
# T4 sequence (P08172 whole entry): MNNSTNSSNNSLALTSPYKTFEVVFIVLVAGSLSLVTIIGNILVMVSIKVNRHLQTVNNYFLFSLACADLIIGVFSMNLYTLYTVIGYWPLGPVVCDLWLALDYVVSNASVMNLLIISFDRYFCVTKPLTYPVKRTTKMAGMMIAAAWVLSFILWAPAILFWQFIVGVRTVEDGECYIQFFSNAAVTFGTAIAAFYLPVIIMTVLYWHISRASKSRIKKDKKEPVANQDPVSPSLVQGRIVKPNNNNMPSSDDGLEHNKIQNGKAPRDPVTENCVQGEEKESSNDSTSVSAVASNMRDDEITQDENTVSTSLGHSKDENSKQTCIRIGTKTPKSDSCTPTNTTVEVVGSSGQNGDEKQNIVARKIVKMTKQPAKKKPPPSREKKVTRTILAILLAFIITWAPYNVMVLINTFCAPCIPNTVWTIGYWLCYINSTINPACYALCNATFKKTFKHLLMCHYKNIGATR
# [7] = biological target: T5, B2 bradykinin receptor (Homo sapiens, UniProt P30411); assay type: cell membranes, Membrane; conditions: chem-1; further: in other assays of this panel Not Active means under 50% inhibition at 10 µM
# T5 sequence (P30411 whole entry): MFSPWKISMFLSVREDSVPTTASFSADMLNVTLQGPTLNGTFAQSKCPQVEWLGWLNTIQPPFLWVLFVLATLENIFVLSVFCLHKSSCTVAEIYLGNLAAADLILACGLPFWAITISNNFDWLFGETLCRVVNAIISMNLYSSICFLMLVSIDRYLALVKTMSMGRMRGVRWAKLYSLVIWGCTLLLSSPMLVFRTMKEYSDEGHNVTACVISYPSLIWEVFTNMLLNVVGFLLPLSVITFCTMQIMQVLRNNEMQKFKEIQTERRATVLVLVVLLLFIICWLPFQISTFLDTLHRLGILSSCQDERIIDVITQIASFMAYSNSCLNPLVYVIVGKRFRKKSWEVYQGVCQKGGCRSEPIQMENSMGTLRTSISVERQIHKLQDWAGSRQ
# [8] = biological target: Cytochrome P450 2C19 (Homo sapiens, UniProt P33261); conditions: bti-tn-5b1-4; further: in other assays of this panel Not Active means under 50% inhibition at 10 µM
# Cytochrome P450 2C19, sequence (P33261 whole entry): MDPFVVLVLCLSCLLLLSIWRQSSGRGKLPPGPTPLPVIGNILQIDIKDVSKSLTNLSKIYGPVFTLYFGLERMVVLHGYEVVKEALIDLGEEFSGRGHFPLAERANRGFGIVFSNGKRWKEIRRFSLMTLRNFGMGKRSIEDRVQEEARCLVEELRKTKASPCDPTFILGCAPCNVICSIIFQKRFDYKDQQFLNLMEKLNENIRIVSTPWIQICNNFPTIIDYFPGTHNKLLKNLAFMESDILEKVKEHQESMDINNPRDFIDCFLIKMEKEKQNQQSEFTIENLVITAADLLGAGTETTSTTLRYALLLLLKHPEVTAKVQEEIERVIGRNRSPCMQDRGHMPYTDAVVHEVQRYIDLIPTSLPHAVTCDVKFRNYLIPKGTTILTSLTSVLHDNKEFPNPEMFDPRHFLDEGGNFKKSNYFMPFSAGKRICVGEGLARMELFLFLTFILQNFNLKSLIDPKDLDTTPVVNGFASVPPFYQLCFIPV
# 5-hydroxytryptamine receptor 1B, sequence (P28564 whole entry): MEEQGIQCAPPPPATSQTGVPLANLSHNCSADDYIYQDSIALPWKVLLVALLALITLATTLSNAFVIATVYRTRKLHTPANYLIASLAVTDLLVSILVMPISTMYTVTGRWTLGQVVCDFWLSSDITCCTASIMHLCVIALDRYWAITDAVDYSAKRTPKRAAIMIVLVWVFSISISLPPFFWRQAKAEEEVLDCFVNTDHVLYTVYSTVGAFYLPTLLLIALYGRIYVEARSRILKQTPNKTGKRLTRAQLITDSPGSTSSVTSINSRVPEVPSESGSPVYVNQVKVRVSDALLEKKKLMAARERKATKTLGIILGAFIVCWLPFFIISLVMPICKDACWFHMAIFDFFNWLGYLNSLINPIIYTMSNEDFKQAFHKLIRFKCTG
Structure (SMILES),IC50 [1],IC50 [2],IC50 [3],IC50 [4],IC50 [5],Ki [5],IC50 [6],IC50 [7],IC50 [8],Ki [8],IC50 ([3]; read-out: IC50) [nM],Ki ([3]; read-out: Ki) [nM]
[N-]=[N+]=CC(=O)OC[C@H](N)C(=O)O [AZASERINE],Not Active,Not Active,Not Active,Not Active,Not Active,Not Active,Not Active,Not Active,Not Active,Not Active,,
C#C[C@]1(O)CC[C@H]2[C@@H]3CCC4=Cc5oncc5C[C@]4(C)[C@H]3CC[C@@]21C [DANAZOL],Not Active,Not Active,Not Active,Not Active,Not Active,Not Active,Not Active,Not Active,Not Active,Not Active,,
CO[C@H]1[C@@H](O)[C@H](N)[C@@H](O[C@H]2O[C@H]([C@H](C)N)CC[C@H]2N)[C@H](O)[C@@H]1N(C)C(=O)CN [ASTROMICIN],Not Active,Not Active,Not Active,Not Active,Not Active,Not Active,Not Active,Not Active,Not Active,Not Active,,
COc1ccc2cc(CCC(C)=O)ccc2c1 [NABUMETONE],Not Active,Not Active,Not Active,Not Active,Not Active,Not Active,Not Active,Not Active,Not Active,Not Active,,
N=C(N)N/N=C/c1c(Cl)cccc1Cl [GUANABENZ],Not Active,Not Active,Not Active,Not Active,Not Active,Not Active,Not Active,Not Active,Not Active,Not Active,,
NC(=O)N1c2ccccc2C=Cc2ccccc21 [CARBAMAZEPINE],Not Active,Not Active,Not Active,Not Active,Not Active,Not Active,Not Active,Not Active,Not Active,Not Active,,
Cc1c(N(C)CS(=O)(=O)[O-])c(=O)n(-c2ccccc2)n1C.[Na+] [DIPYRONE SODIUM],Not Active,Not Active,Not Active,Not Active,Not Active,Not Active,Not Active,Not Active,Not Active,Not Active,,
CCOC(=O)n1ccn(C)c1=S [CARBIMAZOLE],Not Active,Not Active,Not Active,Not Active,Not Active,Not Active,Not Active,Not Active,Not Active,Not Active,,
C#C[C@]1(O)CC[C@H]2[C@@H]3CCc4cc(O)ccc4[C@H]3CC[C@@]21C [ETHINYL ESTRADIOL],Not Active,Not Active,Not Active,Not Active,Not Active,Not Active,Not Active,Not Active,Not Active,Not Active,,
C[C@H]([C@](O)(Cn1cncn1)c1ccc(F)cc1F)S(C)(=O)=O [GENACONAZOLE],Not Active,Not Active,Not Active,Not Active,Not Active,Not Active,Not Active,Not Active,Not Active,Not Active,,
CC(C)C[C@H]1C(=O)N2CCC[C@H]2[C@]2(O)O[C@](NC(=O)[C@@H]3C=C4c5cccc6[nH]c(Br)c(c56)C[C@H]4N(C)C3)(C(C)C)C(=O)N12 [BROMOCRIPTINE],Not Active,Not Active,,Not Active,Not Active,Not Active,Not Active,Not Active,Not Active,Not Active,103,47
CCOC(=O)[C@H](CCc1ccccc1)N[C@@H](C)C(=O)N1CCC[C@H]1C(=O)O,Not Active,Not Active,Not Active,Not Active,Not Active,Not Active,Not Active,Not Active,Not Active,Not Active,,
Nn1nnc2ccccc21,Not Active,Not Active,Not Active,Not Active,Not Active,Not Active,Not Active,Not Active,Not Active,Not Active,,
CC(C)(CO)C(O)C(=O)NCCCO (stereo unspecified) [PANTHENOL],Not Active,Not Active,Not Active,Not Active,Not Active,Not Active,Not Active,Not Active,Not Active,Not Active,,
O=C(O)c1cccnc1 [NIACIN],Not Active,Not Active,Not Active,Not Active,Not Active,Not Active,Not Active,Not Active,Not Active,Not Active,,
C[C@H](C(=O)O)c1cccc(C(=O)c2ccccc2)c1 [DEXKETOPROFEN],Not Active,Not Active,Not Active,Not Active,Not Active,Not Active,Not Active,Not Active,Not Active,Not Active,,
CC[C@H]1OC(=O)[C@H](C)[C@@H](O[C@H]2C[C@@](C)(OC)[C@@H](O)[C@H](C)O2)[C@H](C)[C@@H](O[C@@H]2O[C@H](C)C[C@H](N(C)C)[C@H]2O)[C@](C)(OC)C[C@@H](C)C(=O)[C@H](C)[C@@H](O)[C@]1(C)O [CLARITHROMYCIN],Not Active,Not Active,Not Active,Not Active,Not Active,Not Active,Not Active,Not Active,Not Active,Not Active,,
